Tested on: human promyelocytic leukemia HL-60 cells
Test: in vivo anti-tumor (anti-leukemia) study, HL-60 xenografts in nude mice
Set-up: species or system Athymic nude mice (BALB/c nu/nu)
Conditions: for % inhibition for 1.5 mg/kg/day dosage group: 1.5 mg/kg/day oral (gastric gavage), from relative tumor weight vs control
Description: The following study on nude mice was conducted to investigate the in vivo anti-tumor activities, specifically the anti-leukemia effects, of ergosta-7,22-dien-3β-ol.
Athymic nude mice (BALB/c nu/nu, with body weight of 20-25 g and aged 6-10 weeks) were kept in autoclaved cages with polyester fiber filters to avoid contact with the pathogens. All the animal diet and tap water were autoclaved before feeding to nude mice ad libitum.
Suspension of 1×10^7 of human promyelocytic leukemia HL-60 cells was then injected subcutaneously (s.c.) into the dorsal side of nude mice.
In this study, the tested item was the powders of ergosta-7,22-dien-3β-ol obtained according to the method described in Example 1 above.
When palpable tumors (about 100-200 mm^3 in volume) arose within 14-21 days after injection, the mice were randomly divided into three treatment groups and one control group in which each group consisted of 15 mice. Then, the mice in the treatment group were administrated with the tested item at three dose levels of 1.5, 15.0 or 50.0 mg (of tested item)/kg (of body weight of mouse)/day (in distilled water), while those mice in the control group were administrated with distilled water (as control vehicle). Both groups of mice were administrated by oral route (gastric gavage) daily (except Sundays) for up to 28 days. Tumor dimension was measured on every Mondays, Wednesdays and Fridays.
Tumor dimension was measured by Vernier caliper and tumor weight and tumor volume were calculated according to the following formulae:
Tumor weight (mg)=L×W^2×π/6; and
Tumor volume (mm^3)=L×W×H×π/6;
where L, W, and H were the major dimension, the minor dimension, and the height of the tumor respectively (π=3.1416).
The relative tumor weight was calculated by dividing the tumor weight on a certain day by the mean tumor weight on Day 1. Similarly, the relative tumor volume was calculated by dividing the tumor volume on a certain day by the mean tumor volume on Day 1.
Upon 28 days of administration, the nude mice were euthanized and the final body and tumor weights were recorded for calculating the ratio of the final tumor-to-body weight.
The above-shown results were expressed as the mean±SE of the percentage of inhibition of the tested item on the growth of HL-60 xenografts in nude mice in single experiments. Percentage of inhibition (for any Day n) was calculated from the following formula:
(1−relative tumor weight of treatment group on Day n/relative tumor weight of control group on Day n)×100%.

[1] = 1.5, 15.0 or 50.0 mg/kg/day oral, up to 28 days, all three treatment groups, 1.5 mg/kg/day most significant

CC(C)[C@@H](C)/C=C/[C@@H](C)[C@H]1CC[C@H]2C3=CCC4C[C@@H](O)CC[C@]4(C)[C@H]3CC[C@]12C (stereo partly drawn) [ergosta-7,22-dien-3β-ol]
Anti-tumor activity (1.5, 15.0 and 50.0 mg/kg/day oral, HL-60 xenografts in nude mice): observed at all three dosage groups | percentage ratios of final tumor-to-body weight (1.5, 15.0 or 50.0 mg/kg/day oral, after 28 days, three treatment groups vs control, 1.5 mg/kg/day most significant): lower than that of the control group | relative tumor volume [1]: some effects in the reductions | relative tumor weight [1]: some effects in the reductions | % inhibition for 1.5 mg/kg/day dosage group (Day 1, HL-60 xenografts in nude mice): 0.00% | % inhibition for 1.5 mg/kg/day dosage group (Day 3, HL-60 xenografts in nude mice): 11.35% | % inhibition for 1.5 mg/kg/day dosage group (Day 5, HL-60 xenografts in nude mice): 11.24% | % inhibition for 1.5 mg/kg/day dosage group (Day 8, HL-60 xenografts in nude mice): 23.69% | % inhibition for 1.5 mg/kg/day dosage group (Day 10, HL-60 xenografts in nude mice): 31.65% | % inhibition for 1.5 mg/kg/day dosage group (Day 12, HL-60 xenografts in nude mice): 32.32% | % inhibition for 1.5 mg/kg/day dosage group (Day 15, HL-60 xenografts in nude mice): 30.61% | % inhibition for 1.5 mg/kg/day dosage group (Day 17, HL-60 xenografts in nude mice): 34.99% | % inhibition for 1.5 mg/kg/day dosage group (Day 19, HL-60 xenografts in nude mice): 43.19% | % inhibition for 1.5 mg/kg/day dosage group (Day 22, HL-60 xenografts in nude mice): 38.94% | % inhibition for 1.5 mg/kg/day dosage group (Day 24, HL-60 xenografts in nude mice): 40.57% | % inhibition for 1.5 mg/kg/day dosage group (Day 26, HL-60 xenografts in nude mice): 44.32%

— patent US20090247497A1, “FORMULATION AND USE OF ERGOSTA-7,22-DIEN-3BETA-OL” (priority 2008, published 2009)
